Source: patent US4338330A, “Benzimidazole derivatives, their use, and compositions containing these derivatives” (Continental Pharma, priority 1979, dated 1982)
“Also recorded” adds a separate entry of the source.

Tests used:
[1] = LD50 in mice, oral (Lichtfield and Wilcoxon method); type: in vivo; details: mouse, in vivo, po, read-out: LD50
Procedure: LD50 were determined according to the Lichtfield and Wilcoxon method (J. Pharmacol. Exp. Ther. 96, 99, 1949) and expressed in mg/kg. The products were administered to mice orally.

[2] = Antihypertensive activity, oral, unanesthetized spontaneously hypertensive rats; type: in vivo; details: 60 mg/kg oral; for Antihypertensive activity (score): spontaneously hypertensive rats; for Antihypertensive activity (index): systolic pressure difference (cmHg) every 30 min multiplied by time coefficient 1 to 6
[3] = test system: isolated guinea pig auricles; test: Chronotrope effect of the substance on isolated auricles; details: 10^-6 M, 20 minutes, Tyrode, 29° C.
Procedure: The β-lytic effect was searched on the chronotropic response to noradrenaline of isolated guinea pig auricles. Auricles were incubated for 20 minutes in a Tyrode solution at 29° C. in the presence of the substance to be tested at the concentration of 10^-6 M. A positive (+) or negative (-) chronotrope effect of the substance was noted using the following scores: […]

[4] = test system: chronotropic response to noradrenaline of isolated guinea pig auricles; test: β-lytic effect on the chronotropic response to noradrenaline of isolated auricles
[5] = test system: guinea pig ileum contractions induced by histamine; test: Antispasmodic activity against ileum contractions induced by histamine
[6] = test system: guinea pig ileum contractions induced by acetylcholine; test: Antispasmodic activity against ileum contractions induced by acetylcholine
[7] = biological target: T1, β1 cardiac receptors (Cavia porcellus, UniProt H0W3H1); test: β-lytic activity: inhibition of chronotropic response to noradrenaline of auricles (pA2); parameters: species or system guinea pig; details: for Kb: noradrenaline, read-out: β-lytic activity, pA2 auricles chronotrope response (converted)
T1 construct: chronotropic response to noradrenaline of guinea pig auricles; from tissue; host or cells: guinea pig auricles (chronotropic response); electrically stimulated guinea pig left auricles (inotropic response)
T1 sequence (H0W3H1 1-470): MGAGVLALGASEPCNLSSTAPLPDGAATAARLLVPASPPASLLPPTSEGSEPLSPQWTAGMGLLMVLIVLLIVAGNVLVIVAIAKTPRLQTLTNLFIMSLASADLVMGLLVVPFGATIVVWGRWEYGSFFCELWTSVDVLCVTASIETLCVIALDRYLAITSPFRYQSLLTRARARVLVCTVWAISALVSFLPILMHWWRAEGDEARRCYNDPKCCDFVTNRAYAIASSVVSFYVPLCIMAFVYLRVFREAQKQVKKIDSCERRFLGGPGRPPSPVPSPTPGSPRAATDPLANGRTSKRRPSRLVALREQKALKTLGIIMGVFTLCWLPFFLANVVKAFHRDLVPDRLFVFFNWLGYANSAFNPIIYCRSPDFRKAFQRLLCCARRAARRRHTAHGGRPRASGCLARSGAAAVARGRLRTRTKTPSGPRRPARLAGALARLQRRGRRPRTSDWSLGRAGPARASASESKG
Procedure: (§1) The effect on β1 cardiac receptors is measured by inhibition of the chronotropic response to noradrenaline of guinea pig auricles and of the inotrope response to isoproterenol of guinea pig left auricles which were electrically stimulated. The cardioselectivity is appreciated by measuring the antagonist effect at the level of β2 receptors of the guinea pig trachea. To this end, a tracheal chain is contracted by a maximum concentration of histamine and inhibition of relaxation by isoproterenol is measured. The values calculated for cardioselectivity are obtained by considering the difference between pA2 values of the chronotrope response and the relaxation on the one hand (1st column) and of the inotrope response and relaxation on the other hand (2nd column).

[8] = biological target: T1, β1 cardiac receptors; test: β-lytic activity: inhibition of inotrope response to isoproterenol of electrically stimulated left auricles (pA2); parameters: species or system guinea pig; details: isoproterenol, electrically stimulated left auricles; read-out: β-lytic activity, pA2 auricles inotrope response (converted)
Procedure: as §1

[9] = biological target: T2, β2 receptors of the guinea pig trachea (Cavia porcellus, UniProt Q8K4Z4); test: Antagonist effect on relaxation of trachea by isoproterenol (pA2); details: histamine-contracted tracheal chain, read-out: β-lytic activity, pA2 trachea relaxation (converted)
T2 construct: β2 receptors of the guinea pig trachea; from tissue; host or cells: guinea pig tracheal chain contracted by histamine
T2 sequence (Q8K4Z4 whole entry): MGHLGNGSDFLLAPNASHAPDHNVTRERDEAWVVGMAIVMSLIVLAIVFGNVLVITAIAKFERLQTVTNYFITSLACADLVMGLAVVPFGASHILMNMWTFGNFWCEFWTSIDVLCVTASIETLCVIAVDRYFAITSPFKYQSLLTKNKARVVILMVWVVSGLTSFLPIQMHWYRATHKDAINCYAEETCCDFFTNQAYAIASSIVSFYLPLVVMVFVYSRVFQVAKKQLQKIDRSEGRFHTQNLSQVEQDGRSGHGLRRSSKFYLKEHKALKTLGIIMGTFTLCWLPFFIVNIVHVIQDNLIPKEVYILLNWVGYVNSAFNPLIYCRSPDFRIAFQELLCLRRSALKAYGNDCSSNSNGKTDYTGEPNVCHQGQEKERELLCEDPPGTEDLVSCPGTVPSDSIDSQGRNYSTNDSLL
Procedure: as §1

[10] = test system: β1 cardiac receptors versus β2 tracheal receptors; test: Cardioselectivity (auricles versus trachea); parameters: species or system guinea pig; details: for Cardioselectivity: Table III, from pA2 auricles and trachea; for times more active on β cardiac receptors than on β2 receptors: from difference of pA2 on auricles and trachea; for Cardioselectivity (in words): guinea pig auricles vs trachea
Procedure: as §1, with “column). For these various experiences, pA2 is calculated according to the Van Rossum method (Arch. Inern. Pharmacodyn., 143, 299-330, 1963).” for “column).”

[11] = test system: cardiac receptors; test: Cardioselectivity in vivo, anesthetised dog: cardiac receptors; details: 30 μg/kg i.v.
[12] = test system: peripheral β2 receptors; test: Cardioselectivity in vivo, anesthetised dog: peripheral β2 receptors; details: 30 μg/kg i.v.
[13] = test system: tachycardia caused by isoprotenenol; test: β-lytic activity in vigile rat (antagonism of tachycardia caused by isoproterenol); type: in vivo; details: 10 mg/kg orally; isoproterenol 0.1 mg/kg transcutaneously
[14] = test system: platelet agglutination; test: Inhibition of platelet agglutination in plasma (turbidimetric method, Thrombofax); type: cell-based; details: plasma rich in platelets, preincubated 4 minutes
Procedure: The measure of platelet agglutination inhibition was made according to the turbidimetric method of G. V. R. Born and M. J. Cross (J. Physiol., 168, 178, […]). The plasma rich in platelets was preincubated for 4 minutes before addition of the inducing agent, namely Thrombofax. The variations of turbidity were recorded for a period of 10 minutes with a "Chronolog" agglutinometer. The inhibition of the maximum amplitude of agglutination was measured.

[15] = Peripheral vasodilator activity, anesthetized dog, femoral arterial circulation; type: in vivo; details: 30 μg/kg injected directly
Procedure: The peripheral vasodilator activity was measured on anesthetized dog at the level of femoral arterial circulation. To this end, the femoral artery the collaterals of which have been ligated is perfused at constant rate with blood taken from aorta. The perfusion pressure measured at the level of the femoral artery thus varies as a function of the resistance of the perfused area. The tested products and the corresponding solvents are directly injected at the dose of 30 μg/kg. The cardiac output being maintained constant, a vasodilation is thus measured by a decrease of the perfusion pressure. The latter is scored in comparison with the action of papaverine, considered as a reference and injected one time by group of 4 products. When interesting, the products are tested with other doses under the same conditions.
The vasodilator activity is appreciated as follows: […]

| Structure (SMILES) | LD50 [1] | Antihypertensive activity (score) [2] | Antihypertensive activity (index) [2] | Chronotrope effect (score) [3] | β-lytic effect (score) ([4]; 10^-6 M) | β-lytic effect (score) ([4]; 10^-7 M) | Antispasmodic activity, Hist. (-log CI50 (M)) [5] | Antispasmodic activity, Ac. Chol. (-log CI50 (M)) [6] | Activity on β cardiac receptors (in words) [7] | Kb [7] | Kb [8] | Kb [9] | Cardioselectivity [10] | times more active on β cardiac receptors than on β2 receptors [10] | Cardioselectivity (in words) [10] | Blocking of stimulation of cardiac receptors [11] | Effect on stimulation of peripheral β2 receptors [12] | β-lytic activity in vigile rat [13] | Inhibition of platelet agglutination [14] | Peripheral vasodilator activity [15] |
| --- | --- | --- | --- | --- | --- | --- | --- | --- | --- | --- | --- | --- | --- | --- | --- | --- | --- | --- | --- | --- |
| CC(C)NCC(O)COc1ccc(-c2nc3ccccc3[nH]2)cc1 (stereo not shown) [Compound 1, 2-[4-(3-isopropylamino-2-hydroxypropoxy)phenyl]benzimidazole] | 2300 mg/kg | ++++ (reduction>50 mm Hg) | 174 | 0 (if the frequency modification was comprised between +6 and -6) | 3 (if 6.00≥pD2 ≥5.51) | 2 (if 6.40≥pD2 ≥6.01) | 5.18 -log CI50 (M) | 5.21 -log CI50 (M) | active β-agents on β cardiac receptors | 13.5 nM | 35.5 nM | 28800 nM | 1.73 | 2140 times | important cardioselectivity; also recorded: much higher than that of metopropol and atenolol | blocks stimulation of cardiac receptors | without affecting that of peripheral β2 receptors | demonstrated | active |  |
| CCCCCCCCNCC(O)COc1ccc(-c2nc3ccccc3[nH]2)cc1 (stereo not shown) [Compound 2, 2-[4-(3-n-octylamino-2-hydroxypropoxy)phenyl]benzimidazole] | > 300 mg/kg | 0 (reduction <10 mm Hg) |  |  |  |  | 6.46 -log CI50 (M) | 6.64 -log CI50 (M) |  |  |  |  |  |  |  |  |  |  | active | active |
| COc1ccc(CCNCC(O)COc2ccc(-c3nc4ccccc4[nH]3)cc2)cc1OC (stereo not shown) [Compound 5, 2-[[4-{3-[2-(3,4-dimethoxyphenyl)ethylamino]-2-hydroxypropoxy}phenyl]]benzimidazole] | > 3000 mg/kg | +++ (reduction of 30 to 50 mm Hg) | 34 | 0 (if the frequency modification was comprised between +6 and -6) | 3 (if 6.00≥pD2 ≥5.51) | 2 (if 6.40≥pD2 ≥6.01) | 5.80 -log CI50 (M) | 5.69 -log CI50 (M) | active β-agents on β cardiac receptors | 21.4 nM | 39.8 nM | > 100000 nM | > 1.91 | more than 5600 times | important cardioselectivity; also recorded: much higher than that of metopropol and atenolol |  |  |  |  |  |
